Data reported in the supplement of paper PMC8967900.

Key:
Assay in all cases: selective drug sensitivity score (sDSS, relative to normal bone marrow) (sDSS (score)); higher = more potent and effective on the cell line relative to normal bone marrow cells
Details in all cases: 72 h
COG-LL-319h = test system: COG-LL-319h
PF-382 = test system: PF-382
TMD5 = test system: TMD5
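Also: ALL cell lines in 384-well plates, five doses spanning 10,000-fold, each plate scaled between vehicle and 100 µmol/L benzalkonium chloride controls, sDSS an adapted area-under-curve metric.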

Row | SMILES | selective drug sensitivity score (COG-LL-319h) | selective drug sensitivity score (PF-382) | selective drug sensitivity score (TMD5)
1 | CO[C@H](C(=O)[C@@H](O)[C@@H](C)O)[C@@H]1Cc2cc3cc(O[C@H]4C[C@@H](O[C@H]5C[C@@H](O)[C@H](O)[C@@H](C)O5)[C@@H](O)[C@@H](C)O4)c(C)c(O)c3c(O)c2C(=O)[C@H]1O[C@H]1C[C@@H](O[C@H]2C[C@@H](O[C@H]3C[C@](C)(O)[C@H](O)[C@@H](C)O3)[C@H](O)[C@@H](C)O2)[C@H](O)[C@@H](C)O1 [Plicamycin] (top concentration 10000 nM) | 7.54 | -12.1 | -13.8
2 | Cn1cc(CNCC2CCN(c3ncc(C(=O)NO)cn3)CC2)c2ccccc21 [Quisinostat] (top concentration 1000 nM) | 12.3 | 2.08 | 5.08
3 | CC(C)(C)Cn1c(N)nc2ccc(-c3[nH]c(C(C)(C)C)nc3-c3ccc(F)cc3)nc21 [Ralimetinib] (top concentration 10000 nM) | 4.06 | 2.06 | -0.74
4 | O=C(CCCCCCNC(=O)c1cnc(N(c2ccccc2)c2ccccc2)nc1)NO [Rocilinostat] (top concentration 10000 nM) | 8.24 | 4.84 | 0.04
5 | CN1CCC(CNc2ccc3ncc(-c4cccc(OC(F)(F)F)c4)n3n2)CC1 [SGI-1776] (top concentration 10000 nM) | -1.28 | -2.68 | -0.98
6 | O=C(/C=C\n1cnc(-c2cc(C(F)(F)F)cc(C(F)(F)F)c2)n1)NNc1cnccn1 [Selinexor] (top concentration 10000 nM) | 9.68 | 9.78 | 0.38
7 | Cn1cnc2c(F)c(Nc3ccc(Br)cc3Cl)c(C(=O)NOCCO)cc21 [Selumetinib] (top concentration 10000 nM) | -1.8 | -1.8 | 3.1
8 | COCC[n+]1c2c(n(Cc3cnccn3)c1C)C(=O)c1ccccc1C2=O [Sepantronium_bromide] (top concentration 10000 nM) | 4.64 | 14.1 | 20.5
9 | O=C(O)c1ccc2c(c1)nc(Nc1cccc(Cl)c1)c1ccncc12 [Silmitasertib] (top concentration 10000 nM) | 15.8 | 2 | -2.2
10 | CO[C@H]1C[C@@H]2CC[C@@H](C)[C@@](O)(O2)C(=O)C(=O)N2CCCC[C@H]2C(=O)O[C@H]([C@H](C)C[C@@H]2CC[C@@H](O)[C@H](OC)C2)CC(=O)[C@H](C)/C=C(\C)[C@@H](O)[C@@H](OC)C(=O)[C@H](C)C[C@H](C)/C=C/C=C/C=C/1C [Sirolimus] (top concentration 100 nM) | 5.94 | 1.84 | -3.56
11 | COCCNCc1ccc(-c2cc3nccc(Oc4ccc(NC(=O)C5(C(=O)Nc6ccc(F)cc6)CC5)cc4F)c3s2)nc1 [Sitravatinib] (top concentration 2500 nM) | -0.32 | 1.08 | 11
12 | CCN(CC)CCNC(=O)c1c(C)[nH]c(/C=C2\C(=O)Nc3ccc(F)cc32)c1C [Sunitinib] (top concentration 1000 nM) | -1.34 | -1.44 | 3.26
13 | CC(C)Oc1ccc(-c2nn([C@@H](C)c3oc4ccc(F)cc4c(=O)c3-c3cccc(F)c3)c3ncnc(N)c23)cc1F [TGR-1202] (top concentration 2500 nM) | 1.64 | -2.56 | -2.56
14 | CN(C(=O)c1ccc(F)cc1C(F)(F)F)C1CCN(c2nnc(-c3ccnn3C)c3ccccc23)CC1 [Taladegib] (top concentration 10000 nM) | 5.78 | 0.78 | -1.02
15 | COc1cc(Nc2ncc(F)c(Nc3ccc4c(n3)NC(=O)C(C)(C)O4)n2)cc(OC)c1OC [Tamatinib] (top concentration 10000 nM) | -0.72 | -4.32 | -5.42
16 | Nc1cc(F)ccc1NC(=O)c1ccc(CNC(=O)/C=C/c2cccnc2)cc1 [Tucidinostat] (top concentration 10000 nM) | 12 | 0.74 | 4.14
17 | CN[C@@H]1C[C@H]2O[C@@](C)([C@@H]1OC)n1c3ccccc3c3c4c(c5c6ccccc6n2c5c31)C(=O)N[C@H]4O [UCN-01] (top concentration 10000 nM) | 6.64 | 5.44 | -0.36
18 | CC(C)Nc1cc(-c2c[nH]c(C(=O)N[C@H](CO)c3cccc(Cl)c3)c2)c(Cl)cn1 [Ulixertinib] (top concentration 10000 nM) | -0.78 | -0.28 | 2.12
19 | Cn1ncc(Cl)c1-c1cc(C(=O)N[C@H](CN)Cc2ccc(F)c(F)c2)oc1Cl [Uprosertib] (top concentration 10000 nM) | 5.3 | 4.6 | 1.2
20 | C=CC(=O)N1CC/C(=C\c2ccc(F)c([N+](=O)[O-])c2)C(=O)/C(=C/c2ccc(F)c([N+](=O)[O-])c2)C1 [VLX1570] (top concentration 10000 nM) | 2.08 | -1.72 | -2.62
21 | C[C@@H]1COC(Nc2ccc3ncnc(Nc4ccc(OCc5nccs5)c(Cl)c4)c3c2)=N1 [Varlitinib] (top concentration 10000 nM) | 18.8 | -0.18 | 3.02
22 | CNC(=O)c1cccc(-c2ccc3c(N4CCOC[C@@H]4C)nc(N4CCOC[C@@H]4C)nc3n2)c1 [Vistusertib] (top concentration 10000 nM) | 10.6 | 7.02 | 3.02
